Data set [1] concerns THP-1 monocytic cell line. Put plainly: Pro-inflammatory cytokine expression in human monocytic cell line. As to conditions: human THP-1. In kind it is cell-based. From the text: (§1) Accordingly, the results with 3′SL translate to primary cells as well as to human macrophages.
Data set [2] concerns bone marrow derived macrophages. Kind of data set: Pro-inflammatory cytokine expression in primary mouse cells. In kind it is cell-based.
From the text: as §1

Data set [3] relates to collagen antibody-induced arthritis (CAIA) model. Put plainly: Collagen antibody-induced arthritis (CAIA) model. The data set is classed as in vivo, BALB/c mice. How it is done: Macrophages and the pro-inflammatory cytokines IL-6 and IL-1β are known to perform a major role in the development and progression of joint destruction in animal models and patients with RA. […] Next, it was asked whether or not the in vitro results translate to an in vivo model. 3′SL efficacy in a collagen antibody-induced arthritis (CAIA) model was tested in mice. In the CAIA model, arthritis is induced by systemic administration of a cocktail of monoclonal antibodies that target various regions of collagen type II, which is one of the major constituents of articular cartilage matrix proteins, followed by the administration of endotoxin (LPS) on day 3. The high uptake rate in the CAIA model and the capacity to synchronize the development of arthritis from the time of antibody injection, makes this a relatively straightforward model that is used to address questions of pathogenic mechanisms and to screen candidate therapeutic agents.
8-week old female BALB/c mice were injected with 1.5 mg of Arthrogen-CIA monoclonal antibody cocktail (Chondrex, Inc.). Three days later, the mice were injected with 25 μg of LPS. Beginning with the time of LPS administration and followed for the next 11 consecutive days, mice were orally gavaged thrice daily with either 3′SL (20 mg in saline) or saline alone as control. With the tester blinded to the study groups, arthritis in each limb was determined once per day. […] By adding together, the scores of all four limbs, the maximum score per mouse is 28. In addition, a caliper was placed across the ankle joint at the widest point to measure ankle thickness in both hind limbs daily. 14 days after antibody cocktail administration, mice were euthanized and hind paws collected and processed for histology. H&E—as well as Toluidine blue-stained sections were scored from 0 to 4 for inflammation, bone erosion and cartilage depletion based on a previously validated scoring system.

The next data set deals with RAW 264.7 cells. Kind of data set: Pro-inflammatory cytokine mRNA expression (RT-PCR) in LPS-stimulated macrophages. In kind it is cell-based, murine. How it is done: RAW246.7 cells were exposed to LPS either alone or in combination with either pooled human milk oligosaccharides (HMOs), or 3′-sialyllactose (3′SL) or 2′-fucosyllactose (2′FL). After 6 hours, IL-6 (A) and IL-1β (B) mRNA levels were measured by RT-PCR and are plotted as mean±standard deviation (n=8) relative the respective mRNA levels in cells that were exposed to LPS alone (**p<0.01; ***p<0.001). HMOs are a group of more than 150 different structurally distinct oligosaccharides and their composition follows a basic structural blueprint (C), containing five monosaccharide building blocks: glucose (dark gray circle), galactose (light gray circle), N-acetylglucosamine (dark gray square), fucose (gray triangle) and sialic acid (gray diamond). 3′SL contains lactose with sialic acid at the terminal end; 2′FL contains lactose with fucose at the terminal end.
HMOs were first isolated and purified from pooled human donor milk (pHMO) by using polymixin B affinity chromatography to remove any lipopolysaccharide (LPS) contamination. RAW 264.7 cells, a murine macrophage cell line, were then incubated with LPS (10 ng/mL) and pHMO (500 μg/mL) for 6 hours. RT-PCR was used to measure cytokine mRNA expression.
A multi-dimensional chromatography approach was used that separates pHMO first by charge and then by size. […]

Where [4] appears, read: hind paws, day 14, score 0 to 4, oral 20 mg thrice daily.
Setting [5] is: oral gavage 20 mg in saline thrice daily, from LPS administration, vs saline.

Take `CC(=O)N[C@H]1[C@H]([C@H](O)[C@H](O)CO)O[C@@](O[C@H]2[C@@H](O)[C@@H](CO)O[C@@H](O[C@H]3[C@H](O)[C@@H](O)C(O)O[C@@H]3CO)[C@@H]2O)(C(=O)O)C[C@@H]1O` (stereo partly shown) [3′SL, 3′-sialyllactose]: the pro-inflammatory cytokine expression entry in data set [1] is given as “reduced”. Further, the pro-inflammatory cytokine expression result in data set [2] is “reduced”. Besides, the adverse effects entry in data set [3] (14-day study period, oral 20 mg thrice daily) is given as “No adverse effects were observed”. In addition, in data set [3] (setting [4]), the “histology score for cartilage damage” value is on record as “significantly lower”, the “histology score for erosion” value is recorded as “significantly lower” and the “histology score for inflammation” value is “significantly lower”. In data set [3] (setting [5]), the “Baseline-corrected ankle thickness (paw swelling)” value was “significantly reduced” and the “clinical index score 28” value is “significantly reduced”. Further, the “IL-6 and IL-1β mRNA expression” value in the data set on RAW 264.7 cells (LPS-activated macrophages, individual oligosaccharides) was “most effective in reducing”. Also, in the data set with RAW 264.7 cells (dose-range finding studies), the “IC50 (reducing IL-6 and IL-1β mRNA expression)” value is “around 15 μg/mL”.

The record behind these values is patent US20200237793A1, “IMMUNOMODULATORY OLIGOSACCHARIDES” (The Regents of the University of California, priority 2017, published 2020).
